Data: patent US20250334558A1, “TOTAL HYDROGEN SULFIDE QUANTIFICATION” (The Cleveland Clinic Foundation, priority 2022, published 2025)
Residues, ends and D or L forms follow the SMILES beside them.

Legend:
[1] = Long term (one year) stability study of H2S and thiols in human plasma samples; conditions: n = 3
Experimental: (§1) Long-term stability of H2S and thiols in plasma samples was determined by “accelerated” stability. Samples were incubated in gas tight vials at 60° C. Each day, for five days (and after 1 year), an aliquot was cooled on ice, derivatized, and then analyzed by mass spectrometry. Stability was reported as the mean of the daily stability assay calculated across the five days. The long-term stability was calculated using the following formula: % Stability=(Ct/C0)×100; where C0 is the initial concentration of thiols and Ct is the concentration after each day of incubation. To determine whether the analyte was stable following derivatization, samples from 3 QC levels were kept at auto-sampler temperature and tested for five days. Stability was reported as the mean of the daily stability results for five days using the following formula: % Stability=(Ct/C0)×100; where C0 is the initial concentration of thiols and Ct is the concentration after each day of incubation.
Stability The stability of H2S and thiols in samples was determined through an accelerated stability study of pooled serum samples (Quality Control (QC) samples at 3 concentration levels) analyzed in triplicates at 60° C. for 5 days and compared with fresh matrix that was immediately processed. […] Extract stability was also tested by reanalyzing QC extracts after ≥3 days at 10° C. (auto-sampler temperature) and quantifying against a freshly analyzed sample.

[2] = after 5 freeze-thaw cycles, serum
Experimental: Stability of samples containing H2S and thiols For stability analysis a fresh serum sample was divided into 5 equal aliquots and frozen at −80° C. The aliquots were thawed and analyzed 24 hours later. This process was repeated five times. Percent recovery (stability) was calculated with the following formula: % Stability=100×Ct/C0; where C0 is the initial concentration (μM) of total H2S/thiols in the fresh serum sample and Ct is the concentration after each freeze-thaw cycle. The concentration mean from the 5 freeze-thaw cycles was calculated along with the standard deviation for each compound.

[3] = pooled serum QC samples, 60° C., 5 days, vs fresh matrix
Experimental: as §1
Stability The stability of H2S and thiols in samples was determined through an accelerated stability study of pooled serum samples (Quality Control (QC) samples at 3 concentration levels) analyzed in triplicates at 60° C. for 5 days and compared with fresh matrix that was immediately processed. […] (auto-sampler temperature) and quantifying against a freshly analyzed sample.

[4] = Storage stability of synthesized isotope labelled internal standard [^34S]Na2S and stock master solutions at −80° C.; conditions: Storage at −80° C.
Experimental: The internal standard stock solution was prepared by weighing anhydrous [^34S]Na2S (in glovebox under nitrogen atmosphere) and dissolving it in ammonium bicarbonate buffer (pH 10).
IS working solutions were diluted 10-fold immediately before use.
The recovery of IS for H2S and other monitored thiols was examined in human plasma by comparing analyte peak areas in pooled human serum versus vehicle.

Stability (%) = 100 × Ct/C0 ([1]; QC1, one year storage) | Stability (%) = 100 × Ct/C0 ([1]; QC2, one year storage) | Stability (%) = 100 × Ct/C0 ([1]; QC3, one year storage) | Compound | further results
96.9 ± 6.0% | 96.6 ± 3.2% | 100.5 ± 1.1% | N[C@@H](CS)C(=O)O [Cysteine] | 
91.9 ± 6.5% | 99.0 ± 3.5% | 94.4 ± 4.9% | N[C@@H](CS)C(=O)NCC(=O)O [Cysteinylglycine] | 
95.6 ± 1.3% | 96.2 ± 3.5% | 94.3 ± 6.9% | N[C@@H](CCC(=O)O)C(=O)N[C@@H](CS)C(=O)O [Glutamylcysteine] (H-Glu-Cys-OH) | 
82.1 ± 4.9% | 95.8 ± 5.5% | 99.0 ± 6.1% | N[C@@H](CCC(=O)N[C@@H](CS)C(=O)NCC(=O)O)C(=O)O [Glutathione] | 
90.3 ± 5.6% | 101.3 ± 5.3% | 108.2 ± 6.9% | N[C@@H](CCS)C(=O)O [Homocysteine] | 
 |  |  | [Na+].[Na+].[S-2] [[^34S]Na2S, ^34S isotope-labeled sodium sulfide] | % of peak area, storage stability ([4]; 1 Week): 100.0 ± 9.7%; % of peak area, storage stability ([4]; 2 Week): 101.3 ± 8.5%; % of peak area, storage stability ([4]; 3 Week): 97.3 ± 14.3%; % of peak area, storage stability ([4]; 4 Week): 101.1 ± 8.1%; % of peak area, storage stability ([4]; 5 Week): 96.1 ± 4.5%; % of peak area, storage stability ([4]; 6 Week): 101.1 ± 8.1%; % of peak area, storage stability ([4]; 7 Week): 103.7 ± 12.3%; % of peak area, storage stability ([4]; 8 Week): 98.8 ± 19.9%

Compound | Stability (%) = 100 × Ct/C0 ([1]; QC1, one year storage) | Stability (%) = 100 × Ct/C0 ([1]; QC2, one year storage) | Stability (%) = 100 × Ct/C0 ([1]; QC3, one year storage) | further results
S [H2S, Hydrogen sulfide] | 98.4 ±2.2% | 97.4 ± 4.3% | 99.0 ± 3.9% | Freeze-thaw stability [2]: 98.6%; Sample stability (accelerated) [3]: 94.4%
